Test [1] has as its target T1, EZH2 (Mus musculus, UniProt Q61188).
T1 construct: endogenous in cells; host or cells: Arid1a^fl/fl mouse urothelial organoids
Put plainly: H3K27me3 on the Rasgrp1 promoter in Arid1a^fl/fl organoids treated with EZH2 inhibitor. Type of test: cell-based. The note with it: Arid1a^fl/fl organoids treated with GSK126. The procedure: CUT&Tag was performed following the published protocol, with some modifications. Briefly, cells were harvested and prepared into homogenous suspension in PBS, aliquoted with 10% DMSO and slow-frozen to −80° C. in isopropanol freezing chambers. CUT&Tag was performed with native nuclei. Cells were thawed at 37° C. for 1 minute, washed twice with PBS and centrifugation at 600×g for 3 minutes, and resuspended into ice-cold NE1 buffer (20 mM K-HEPES pH 7.9, 10 mM KCl, […], 20% Glycerol, 0.5 mM spermidine, and EDTA-free protease inhibitor). Cells were kept on ice for 10 minutes, centrifuged at 1400×g for 3 minutes using a swinging-bucket rotor, pellets were resuspended in Wash buffer (20 mM Na-HEPES pH 7.5, 150 mM NaCl, 0.5 mM spermidine, and EDTA-free protease inhibitor), nuclei were counted using Vi-CELL© Cell Viability Analyzer (Beckman Coulter) and aliquoted into 0.6 mL low-binding flip-cap tubes for CUT&Tag experiments.
500,000 nuclei were used for each CUT&Tag experiment targeting a histone posttranslational modification, while 200,000 nuclei were used for ARID1A. Bio-Mag®Plus Concanavalin A coated magnetic beads (Bangs Laboratories) were equilibrated with binding buffer (20 mM K-HEPES pH7.9, 10 mM KCl, and 1 mM each CaCl2 and MnCl2). To each sample, 10 μL of activated beads were added and held at room temperature for 5 minutes with occasional gentle mixing. […]

Test [2] concerns RASGRP1 protein. Put plainly: RASGRP1 IF in Arid1a^fl/fl organoids after GSK126. Format: cell-based, mouse. The note with it: Arid1a^fl/fl cells treated with GSK126. The procedure: Organoids were fixed using 4% PFA for 2 hours at room temperature on a shaker followed by a 30-minute incubation on ice to achieve complete removal of EHS. Intact organoids were collected as a pellet after centrifugation at 1400 rpm for 5 min and washed with ddH2O. The pellet was further washed with 0.2% BSA and organoids were mixed with HistoGel™ (Epredia). The organoid and HistoGel™ suspension was centrifuged at 1400 rpm for 5 minutes and kept on ice for 30 minutes. The solidified HistoGel™ structure was stored at 4° C. until ready for processing and paraffin embedding. Organoid sections ([…]) were deparaffinized in CitriSolv™ (Fisher, 4355121) for 10 minutes and rehydrated using 100% (2×), 90% (2×) and 70% (2×) ethanol for 5 minutes each. Antigen retrieval was performed by preheating in sodium citrate buffer (pH 6.0) solution for 10 minutes at 121° C. in a pressure cooker. Organoid sections were blocked in 1% BSA solution for 1 hour followed by overnight incubation in primary antibody (anti-RASGRP1: Fisher) at 4° C. in a humidified chamber. Secondary antibody (Alexa Fluor® 594: Invitrogen) incubation was performed for 1 hour at room temperature. All slides were mounted using ProLong™ gold mounting media with DAPI (Fisher Scientific, P36935). […]

Test [3] deals with eEF2 phosphorylation. The test can be described thus: Immunoblot of phospho-eEF2 and total eEF2 in Arid1a^fl/fl organoids +/- GSK126. Type of test: cell-based, mouse. The procedure:
Cell lysates were prepared using RIPA buffer (Fisher) containing phosphatase inhibitor (Sigma) and protease inhibitor cocktail (Sigma). The lysates were incubated on ice for 30 minutes with periodic mixing by vortex and centrifuged at 13,000×g at 4° C. for 10 minutes. The supernatants were subjected to SDS-PAGE and transferred to a PDVF membrane (Bio-Rad). Membranes were blocked with 5% milk for 1 hour at room temperature. Primary antibodies were diluted in 5% milk and incubated overnight at 4° C. Blots were incubated with horse radish peroxidase- (HRP-) conjugated secondary antibodies (goat anti-rabbit IgG (Fisher) or goat anti-mouse IgG (Fisher)) in 5% milk for 1 hour at room temperature. West Pico (Fisher) was used to detect immunoreactive bands on the blot using the ChemiDoc Touch Imaging System (Bio-Rad). […]

Test [4] relates to Rasgrp1 mRNA. The test can be described thus: QPCR of Rasgrp1 in Arid1a^fl/fl organoids after GSK126. Type of test: cell-based, mouse. Conditions: Arid1a^fl/fl cells; GSK126 12.5 μM.
Test [5] concerns PDX2 (ARID1A medium). The test can be described thus: Pre-clinical trial of patient derived xenograft treated with HHT. Format: in vivo, mouse. Conditions: ARID1A medium model; HHT 0.7 mg/kg twice daily by oral gavage. From the text: (§1) Arid1a^LoxP/LoxP (Jackson Laboratory), ROSA-LSL-Yfp^KI/KI (Jackson Laboratory), and UBC-Cre^ERT2 (Jackson Laboratory). eEF2K^−/− animals were kindly provided by Alexey G. Ryazanov (Rutgers University). UBC-Cre^ERT2;ROSA-LSL-Yfp^KI/KI;Arid1a^LoxP/LoxP animals (mixed background) were bred to Eef2k^−/− animals (C57BL/6) for one generation to produce progeny heterozygous at all loci (ROSA-LSL-Yfp^KI/+;Arid1a^LoxP/+; eEF2K^+/−) with or without UBC-Cre^ERT2. Heterozygous animals without UBC-Cre^ERT2 were backcrossed once more to ROSA-LSL-Yfp^KI/KI;Arid1a^LoxP/LoxP animals to reintroduce homozygosity at the ARID1A and ROSA-LSL-Yfp, while maintaining heterozygosity at the Eef2k locus (ROSA-LSL-Yfp^KI/KI; Arid1a^LoxP/LoxP; Eef2K^+/−; with and without UBC-Cre^ERT2). […] For survival studies, the body weight of the mouse was recorded and monitored every two days for the duration of the survival trial.
(§2) Tumor pieces (1×1×1 mm) were implanted into the flank of 4-6 weeks old NOD-SCID γ IL-2 mice. Xenografts were measured every 2 days and tumor volume was calculated using the formula (L×W×W)/2, where L is the length of the tumor and W its width. […]

The test system of test [6] is PDX1 (ARID1A low). Described as above. Format: in vivo, mouse. Conditions: ARID1A low model; HHT 0.7 mg/kg twice daily by oral gavage.
Source text: as §1, §2

The results in this text go back to patent US20240350488A1, “METHODS OF TREATING SWI/SNF DEREGULATED CANCERS” (Fred Hutchinson Cancer Center, priority 2023, published 2024).

T1 sequence (Q61188 whole entry): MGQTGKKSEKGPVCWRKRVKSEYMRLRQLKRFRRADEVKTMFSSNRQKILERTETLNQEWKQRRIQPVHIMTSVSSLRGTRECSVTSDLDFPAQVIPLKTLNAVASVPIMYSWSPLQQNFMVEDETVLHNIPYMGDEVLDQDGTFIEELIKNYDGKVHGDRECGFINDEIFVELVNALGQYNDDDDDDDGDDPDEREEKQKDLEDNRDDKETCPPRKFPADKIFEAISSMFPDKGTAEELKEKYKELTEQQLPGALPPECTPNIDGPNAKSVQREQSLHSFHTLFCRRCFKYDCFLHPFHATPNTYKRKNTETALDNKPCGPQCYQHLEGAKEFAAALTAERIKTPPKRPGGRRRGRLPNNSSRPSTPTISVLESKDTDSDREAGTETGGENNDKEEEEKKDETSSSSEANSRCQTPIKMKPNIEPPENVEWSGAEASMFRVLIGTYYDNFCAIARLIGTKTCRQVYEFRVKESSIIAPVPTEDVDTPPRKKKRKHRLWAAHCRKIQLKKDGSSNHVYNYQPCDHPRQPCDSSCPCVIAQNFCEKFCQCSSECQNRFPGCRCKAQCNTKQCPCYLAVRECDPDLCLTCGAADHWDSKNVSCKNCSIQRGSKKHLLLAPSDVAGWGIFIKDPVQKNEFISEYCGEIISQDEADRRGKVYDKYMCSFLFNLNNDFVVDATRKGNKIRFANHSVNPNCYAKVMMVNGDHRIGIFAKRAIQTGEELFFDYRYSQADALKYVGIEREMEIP
T1 sequence (Q921E6 whole entry partner): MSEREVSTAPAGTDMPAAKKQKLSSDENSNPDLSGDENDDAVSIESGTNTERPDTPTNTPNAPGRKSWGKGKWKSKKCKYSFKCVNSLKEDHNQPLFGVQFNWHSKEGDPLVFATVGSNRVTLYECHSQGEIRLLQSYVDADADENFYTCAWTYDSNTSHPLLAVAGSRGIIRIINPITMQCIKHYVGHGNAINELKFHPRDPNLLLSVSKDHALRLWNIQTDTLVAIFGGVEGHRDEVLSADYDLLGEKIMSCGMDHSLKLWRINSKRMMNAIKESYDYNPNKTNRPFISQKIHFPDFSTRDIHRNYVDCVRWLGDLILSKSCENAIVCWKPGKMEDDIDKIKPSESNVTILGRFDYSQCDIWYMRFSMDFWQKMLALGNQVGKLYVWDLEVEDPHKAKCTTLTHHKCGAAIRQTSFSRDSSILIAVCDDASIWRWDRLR
T1 sequence (Q80U70 whole entry partner): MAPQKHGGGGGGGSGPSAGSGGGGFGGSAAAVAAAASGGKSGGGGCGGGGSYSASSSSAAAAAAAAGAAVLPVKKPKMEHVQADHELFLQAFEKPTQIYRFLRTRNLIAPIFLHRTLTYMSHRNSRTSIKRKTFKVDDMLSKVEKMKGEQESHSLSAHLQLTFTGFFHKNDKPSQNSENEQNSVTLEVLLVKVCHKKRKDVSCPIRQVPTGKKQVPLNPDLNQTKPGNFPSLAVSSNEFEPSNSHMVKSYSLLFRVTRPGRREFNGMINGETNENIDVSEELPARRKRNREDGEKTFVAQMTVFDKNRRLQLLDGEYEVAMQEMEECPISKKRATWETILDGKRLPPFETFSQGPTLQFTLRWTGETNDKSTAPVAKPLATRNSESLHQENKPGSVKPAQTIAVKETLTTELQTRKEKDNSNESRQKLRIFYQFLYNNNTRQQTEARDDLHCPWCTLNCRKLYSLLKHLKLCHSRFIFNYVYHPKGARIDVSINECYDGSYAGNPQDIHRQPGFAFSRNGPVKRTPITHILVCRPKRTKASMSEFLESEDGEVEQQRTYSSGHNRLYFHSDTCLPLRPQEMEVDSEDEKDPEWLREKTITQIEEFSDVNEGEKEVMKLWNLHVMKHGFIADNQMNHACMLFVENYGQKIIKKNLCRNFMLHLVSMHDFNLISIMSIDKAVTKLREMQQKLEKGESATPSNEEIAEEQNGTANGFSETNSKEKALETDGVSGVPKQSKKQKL
T1 sequence (Q60972 whole entry partner): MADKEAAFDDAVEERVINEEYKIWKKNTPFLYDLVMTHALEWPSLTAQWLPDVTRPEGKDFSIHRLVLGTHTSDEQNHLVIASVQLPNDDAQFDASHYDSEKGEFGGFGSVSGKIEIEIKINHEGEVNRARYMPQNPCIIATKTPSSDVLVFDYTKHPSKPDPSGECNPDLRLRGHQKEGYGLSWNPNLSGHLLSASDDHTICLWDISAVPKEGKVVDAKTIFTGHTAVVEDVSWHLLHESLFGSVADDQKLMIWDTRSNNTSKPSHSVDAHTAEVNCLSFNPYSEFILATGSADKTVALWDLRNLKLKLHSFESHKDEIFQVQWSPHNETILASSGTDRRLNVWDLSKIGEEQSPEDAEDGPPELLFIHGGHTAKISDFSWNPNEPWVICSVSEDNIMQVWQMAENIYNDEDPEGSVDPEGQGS

For `CC[C@H](C)n1cc(C)c2c(C(=O)NCc3c(C)cc(C)[nH]c3=O)cc(-c3ccc(N4CCNCC4)nc3)cc21` [GSK126], the “H3K27me3 on the Rasgrp1 promoter” value in test [1] is given as “decreased H3K27me3”. For the same compound, the RASGRP1 protein levels result in test [2] is “restored”. Moreover, the eEF2 phosphorylation entry in test [3] was “decrease in eEF2 phosphorylation”. Further, in test [4], the “Rasgrp1 mRNA levels” value is on record as “restored”.

In the case of `COC(=O)C[C@](O)(CCCC(C)(C)O)C(=O)O[C@@H]1C(OC)=C[C@]23CCCN2CCc2cc4c(cc2[C@H]13)OCO4` [HHT, homoharringtonine], the entries for the “decrease in tumor growth” value in test [5] and in test [6] were 35.9% and 59.3%, respectively.
